Reference: patent US10407467B2, “Polymyxin derivatives and their use in combination therapy together with different antibiotics” (priority 2013, dated 2019)
Counter-ions that a name gives are not always drawn. Like-named read-outs stand apart in the source and are kept apart here. Values belong to the compound of their own block, whether it stands above or below them. Numbered stars: 1 amine (or outer) side, 2 acyl side, 3 side chain; on linkers, the order of the positions; unused ones are H or OH. Bridge positions count the residues as written; N and C are the ends. Square brackets hold non-standard residues; d marks the D form. Peptide text beside a SMILES is read from it. * marks the point of attachment. ξ: configuration not given here. ξHexahydromandeloyl = O=C(C(O)C1CCCCC1)*; ξβ3hGly(cHex) = NC(CC(=O)*)C1CCCCC1; X12 = CC(C)C[C@H](N)[C@H](O)C(=O)*; X22 = O=C(C[C@@H]1Cc2ccccc2CN1)*; Thr(3ξ) = CC(O)[C@H](N)C(=O)O; NH(2-ClPh) = Clc1ccccc1N*; Dab = NCC[C@H](N)C(=O)O; X3 = O=C([C@H]1CCCNC1)*; Dap = NC[C@H](N)C(=O)O; CO = O=C([*:1])[*:2]; Ahp = NCCCCCCC(=O)O

Columns and labels:
HK-2 cell line = experiment: In vitro renal cell toxicity assay (resazurin reduction); type: cell-based, human
P. aeruginosa ATCC 27853 = conditions: ATCC 27853, in vivo
Klebsiella pneumoniae [1] = experiment: MIC, compound in combination with a second agent (broth microdilution); type: cell-based; conditions: 1:1 (wt:wt) combination with Rifampicin, MIC = total drug concentration; for MIC K. pneumoniae ATCC 4352: strain ATCC 4352; for MIC K. pneumoniae ATCC-BAA-2146: strain ATCC-BAA-2146; for MIC K. pneumoniae CCUG-59348: strain CCUG-59348
In short: (§1)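 Susceptibility was tested on up to four strains of each pathogen with the compound paired 1:1 by weight alongside another antibacterial. Values count both components together and use the lower duplicate if replicates agreed within 2-fold.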

Escherichia coli [2] = experiment: as above; type: cell-based; conditions: 1:1 (wt:wt) combination with Rifampicin, MIC = total drug concentration; for MIC E. coli ATCC25922: strain ATCC25922; for MIC E. coli NCTC9001: strain NCTC9001
In short: as §1

Pseudomonas aeruginosa [3] = experiment: as above; type: cell-based; conditions: 1:1 (wt:wt) combination with Rifampicin, MIC = total drug concentration; for MIC P. aeruginosa ATCC 27853: strain ATCC 27853; for MIC P. aeruginosa ATCC-47: strain ATCC-47; for MIC P. aeruginosa CCUG 59626: strain CCUG 59626
In short: as §1

Acinetobacter baumannii = experiment: as above; type: cell-based; conditions: 1:1 (wt:wt) combination with Rifampicin, MIC = total drug concentration; for MIC A. baumannii ATCC BAA-747: strain ATCC BAA-747; for MIC A. baumannii CCUG57249: strain CCUG57249; for MIC A. baumannii NCTC 13423: strain NCTC 13423
In short: as §1

Klebsiella pneumoniae [4] = experiment: MIC, sole activity (no second agent); type: cell-based; conditions: in the absence of Rifampicin; strain ATCC 4352
In short: (§2)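 First, isolated colonies grown 18-24 hours on Mueller-Hinton agar were suspended to 0.5 McFarland; next, up to four strains per pathogen were tested in duplicate in cation-adjusted MHB; finally, the lower concordant value or modal repeat value was reported against Polymyxin B.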

Escherichia coli [5] = experiment: MIC, sole activity (no second agent); type: cell-based; conditions: in the absence of Rifampicin; strain ATCC25922
In short: as §2

Pseudomonas aeruginosa [6] = experiment: MIC, sole activity (no second agent); type: cell-based; conditions: in the absence of Rifampicin; strain ATCC27853
In short: as §2

Compound: CCCCCC(N)CC(=O)N[C@H](C(=O)N[C@@H](CCN)C(=O)N[C@H]1CCNC(=O)[C@H](C(C)O)NC(=O)[C@H](CCN)NC(=O)[C@H](CCN)NC(=O)[C@H](CC(C)C)NC(=O)[C@@H](Cc2ccccc2)NC(=O)[C@H](CCN)NC1=O)C(C)O (single isomer, unassigned; isomer 2) [Example A33, 3-(RS)-3-amino octanoyl polymyxin B nonapeptide. Isomer 2]
HK-2 IC50 rel to PMB (HK-2 cell line): 9.7
HK-2 relative to PMB (HK-2 cell line): 9.7
HK-2 toxicity (IC50) compared with PMB (HK-2 cell line): significantly increased recorded IC50 values
Log reduction from vehicle (CFU/g) (P. aeruginosa ATCC 27853; 3.4 mg/kg, 24 h): 3.54 log CFU/g

MIC K. pneumoniae ATCC 4352 (Klebsiella pneumoniae [1]): 0.125 micrograms/mL
MIC K. pneumoniae ATCC-BAA-2146 (Klebsiella pneumoniae [1]): 0.5 micrograms/mL
MIC K. pneumoniae CCUG-59348 (Klebsiella pneumoniae [1]): 4 micrograms/mL
MIC K. pneumoniae NCTC 13438 (Klebsiella pneumoniae [1]; strain NCTC 13438): 1 micrograms/mL
MIC E. coli ATCC25922 (Escherichia coli [2]): 0.125 micrograms/mL
MIC E. coli NCTC9001 (Escherichia coli [2]): 0.5 micrograms/mL
MIC P. aeruginosa ATCC 27853 (Pseudomonas aeruginosa [3]): 0.25 micrograms/mL
MIC P. aeruginosa ATCC-47 (Pseudomonas aeruginosa [3]): 0.25 micrograms/mL
MIC P. aeruginosa CCUG 59626 (Pseudomonas aeruginosa [3]): 0.125 micrograms/mL
MIC A. baumannii ATCC BAA-747 (Acinetobacter baumannii): ≤0.06 micrograms/mL
MIC A. baumannii CCUG57249 (Acinetobacter baumannii): 0.125 micrograms/mL
MIC A. baumannii NCTC 13423 (Acinetobacter baumannii): ≤0.06 micrograms/mL
MIC A. baumannii NCTC 13424 (Acinetobacter baumannii; strain NCTC 13424): 0.125 micrograms/mL
MIC K. pneumoniae ATCC 4352 (Klebsiella pneumoniae [4]): 2 micrograms/mL
MIC E. coli ATCC25922 (Escherichia coli [5]): 1 micrograms/mL
MIC P. aeruginosa ATCC 27853 (Pseudomonas aeruginosa [6]): 0.25 micrograms/mL
Compound: CC(C)C[C@@H]1NC(=O)[C@@H](Cc2ccccc2)NC(=O)[C@H](CCN)NC(=O)[C@@H](NC(=O)[C@H](CCN)NC(=O)[C@@H](NC(=O)CCCCCCN)C(C)O)CCNC(=O)[C@H](C(C)O)NC(=O)[C@H](CCN)NC(=O)[C@H](CCN)NC1=O (stereo partly drawn) [Example 13, 7-Aminoheptanoyl polymyxin B nonapeptide] (H-[Ahp][Thr(3ξ)][Dab][Dab][Dab][dF]L[Dab][Dab][Thr(3ξ)]; lactam 4-C)
HK-2 relative to PMB (HK-2 cell line): 14
HK-2 toxicity (IC50) compared with PMB (HK-2 cell line): significantly increased recorded IC50 values

Compound: CC(C)C[C@@H]1NC(=O)[C@@H](Cc2ccccc2)NC(=O)[C@H](CCN)NC(=O)[C@@H](NC(=O)[C@H](CCN)NC(=O)[C@@H](NC(=O)[C@H](CCN)NC(=O)C(O)C2CCCCC2)C(C)O)CCNC(=O)[C@H](C(C)O)NC(=O)[C@H](CCN)NC(=O)[C@H](CCN)NC1=O (stereo partly drawn) [Example A3, 2-(RS)-(2-Hydroxy-2-cyclohexyl)ethanoyl polymyxin B decapeptide] (ξHexahydromandeloyl-[Dab][Thr(3ξ)][Dab][Dab][Dab][dF]L[Dab][Dab][Thr(3ξ)]; lactam 4-C)
HK-2 IC50 rel to PMB (HK-2 cell line): 4
Log reduction from vehicle (CFU/g) (P. aeruginosa ATCC 27853; iv, 2 mg/kg, 9 h): 0.12 log CFU/g
Log reduction from vehicle (CFU/g) (P. aeruginosa ATCC 27853; iv, 4 mg/kg, 9 h): 3.34 log CFU/g

Compound: CC(C)C[C@@H]1NC(=O)[C@@H](Cc2ccccc2)NC(=O)[C@H](CCN)NC(=O)[C@@H](NC(=O)[C@H](CCN)NC(=O)[C@@H](NC(=O)[C@H](CN)NC(=O)CC(N)C2CCCCC2)C(C)O)CCNC(=O)[C@H](C(C)O)NC(=O)[C@H](CCN)NC(=O)[C@H](CCN)NC1=O (stereo partly drawn) [Example A6, [3(R,S)-3-Amino-3-cyclohexanepropanoyl]-L-Dap-polymyxin B nonapeptide] ({ξβ3hGly(cHex)}-[Dap][Thr(3ξ)][Dab][Dab][Dab][dF]L[Dab][Dab][Thr(3ξ)]; lactam 4-C)
HK-2 IC50 rel to PMB (HK-2 cell line): 3

Compound: CC(C)C[C@@H]1NC(=O)[C@@H](Cc2ccccc2)NC(=O)[C@H](CCN)NC(=O)[C@@H](NC(=O)[C@H](CN)NC(=O)[C@@H](NC(=O)[C@H](CCN)NC(=O)[C@H]2CCCNC2)C(C)O)CCNC(=O)[C@H](C(C)O)NC(=O)[C@H](CCN)NC(=O)[C@H](CCN)NC1=O (stereo partly drawn) [Example A13, [(3S)-piperidine-3-carbonyl]-L-Dab-L-Thr-L-Dap polymyxin B heptapeptide] (X3-[Dab][Thr(3ξ)][Dap][Dab][Dab][dF]L[Dab][Dab][Thr(3ξ)]; lactam 4-C)
HK-2 IC50 rel to PMB (HK-2 cell line): 10

Compound: CC(C)C[C@@H]1NC(=O)[C@@H](Cc2ccccc2)NC(=O)[C@H](CCN)NC(=O)[C@@H](NC(=O)[C@H](CCN)NC(=O)[C@@H](NC(=O)C[C@@H]2Cc3ccccc3CN2)C(C)O)CCNC(=O)[C@H](C(C)O)NC(=O)[C@H](CCN)NC(=O)[C@H](CCN)NC1=O (stereo partly drawn) [Example A14, (S)-2-((1,2,3,4)-tetrahydroisoquinolin-3-yl) ethanoyl polymyxin B nonapeptide] (X22-[Thr(3ξ)][Dab][Dab][Dab][dF]L[Dab][Dab][Thr(3ξ)]; lactam 3-C)
HK-2 IC50 rel to PMB (HK-2 cell line): 5.3

Compound: CC(C)C[C@@H]1NC(=O)[C@@H](Cc2ccccc2)NC(=O)[C@H](CCN)NC(=O)[C@@H](NC(=O)[C@H](CN)NC(=O)[C@@H](NC(=O)[C@H](CCN)NC(=O)[C@@H](O)[C@@H](N)CC(C)C)C(C)O)CCNC(=O)[C@H](C(C)O)NC(=O)[C@H](CCN)NC(=O)[C@H](CCN)NC1=O (stereo partly drawn) [Example A17, [(2S,3S)-3-Amino-2-hydroxy-5-methylhexanoyl]-L-Dab-L-Thr-L-Dap polymyxin B heptapeptide] (X12-[Dab][Thr(3ξ)][Dap][Dab][Dab][dF]L[Dab][Dab][Thr(3ξ)]; lactam 4-C)
HK-2 IC50 rel to PMB (HK-2 cell line): 5.5

Compound: CC(C)C[C@@H]1NC(=O)[C@@H](Cc2ccccc2)NC(=O)[C@H](CCN)NC(=O)[C@@H](NC(=O)[C@H](CCN)NC(=O)[C@@H](NC(=O)[C@H](CCN)NC(=O)[C@H]2CCCNC2)C(C)O)CCNC(=O)[C@H](C(C)O)NC(=O)[C@H](CCN)NC(=O)[C@H](CCN)NC1=O (stereo partly drawn) [Example A22, (S)-Piperidine-3-carbonyl polymyxin B decapeptide] (X3-[Dab][Thr(3ξ)][Dab][Dab][Dab][dF]L[Dab][Dab][Thr(3ξ)]; lactam 4-C)
HK-2 IC50 rel to PMB (HK-2 cell line): 7.4

Compound: CC(C)C[C@@H]1NC(=O)[C@@H](Cc2ccccc2)NC(=O)[C@H](CCN)NC(=O)[C@@H](NC(=O)[C@H](CCN)NC(=O)[C@@H](NC(=O)[C@H](CCN)NC(=O)Nc2ccccc2Cl)C(C)O)CCNC(=O)[C@H](C(C)O)NC(=O)[C@H](CCN)NC(=O)[C@H](CCN)NC1=O (stereo partly drawn) [Example C2, CB-182, 804 sulphate salt, reference compound] ({NH(2-ClPh)-CO}-[Dab][Thr(3ξ)][Dab][Dab][Dab][dF]L[Dab][Dab][Thr(3ξ)]; lactam 4-C)
MIC K. pneumoniae ATCC 4352 (Klebsiella pneumoniae [1]): 0.25 micrograms/mL
MIC K. pneumoniae ATCC-BAA-2146 (Klebsiella pneumoniae [1]): 0.5 micrograms/mL
MIC K. pneumoniae CCUG-59348 (Klebsiella pneumoniae [1]): 2 micrograms/mL
MIC E. coli ATCC25922 (Escherichia coli [2]): 0.125 micrograms/mL
MIC E. coli NCTC9001 (Escherichia coli [2]): 0.25 micrograms/mL
MIC P. aeruginosa ATCC 27853 (Pseudomonas aeruginosa [3]): 0.5 micrograms/mL
MIC P. aeruginosa ATCC CRM-9027 (Pseudomonas aeruginosa [3]; strain ATCC CRM-9027): 0.5 micrograms/mL
MIC P. aeruginosa ATCC-47 (Pseudomonas aeruginosa [3]): 0.25 micrograms/mL
MIC P. aeruginosa CCUG 59626 (Pseudomonas aeruginosa [3]): 0.125 micrograms/mL
MIC A. baumannii ATCC BAA-747 (Acinetobacter baumannii): 0.25 micrograms/mL
MIC A. baumannii CCUG57249 (Acinetobacter baumannii): 0.5 micrograms/mL
MIC A. baumannii NCTC 13423 (Acinetobacter baumannii): 0.25 micrograms/mL
IC50 HK-2 cells (HK-2 cell line; HK-2 cells, 24 h, resazurin reduction, mean values of up to 6 independent studies): 22 µg/mL

Compound: Octanoyl polymyxin B nonapeptide, sulfate salt [Example C6, reference compound]
HK-2 relative to PMB (HK-2 cell line): 3.3
HK-2 toxicity (IC50) compared with PMB (HK-2 cell line): reduced toxicity against HK-2 compared with PMB
